Results from patent US12371454B2, “Cyclic peptide compound having Kras inhibitory action” (priority 2019, dated 2025).
Starred links: 1 amine or outer side, 2 acyl side, 3 side chain; linkers in the order of their positions; H or OH if unused. Positions of bridges follow the written chain, without caps; N, C: chain ends. Non-standard residues stand in square brackets, D forms with d. Residues, ends and D or L forms follow the SMILES beside them. *: point of attachment. hPhe(3,5-F2-4-CF3) = N[C@@H](CCc1cc(F)c(C(F)(F)F)c(F)c1)C(=O)O; hPhe(3-Cl-4-CF3) = N[C@@H](CCc1ccc(C(F)(F)F)c(Cl)c1)C(=O)O; X12 = CN([C@@H](Cc1ccc(C(F)(F)F)nc1)C(=O)[*:2])[*:1]; NMePhe(4-CF3) = CN[C@@H](Cc1ccc(C(F)(F)F)cc1)C(=O)O; NMePhe(3-OMe) = CN[C@@H](Cc1cccc(OC)c1)C(=O)O; NMeAbu(4,4,4-F3) = CN[C@@H](CC(F)(F)F)C(=O)O; NMePhe(3-Br) = CN[C@@H](Cc1cccc(Br)c1)C(=O)O; NMePhe(4-Me) = CN[C@@H](Cc1ccc(C)cc1)C(=O)O; NMePhe(4-F) = CN[C@@H](Cc1ccc(F)cc1)C(=O)O; Phe(3-I) = N[C@@H](Cc1cccc(I)c1)C(=O)O; NMeY = CN[C@@H](Cc1ccc(O)cc1)C(=O)O; NMeCha = CN[C@@H](CC1CCCCC1)C(=O)O; Hyp = O=C(O)[C@@H]1C[C@@H](O)CN1; NMeChg = CN[C@H](C(=O)O)C1CCCCC1; NMeI = CC[C@H](C)[C@H](NC)C(=O)O; NMeD = CN[C@@H](CC(=O)O)C(=O)O; NMeL = CN[C@@H](CC(C)C)C(=O)O; NMeV = CN[C@H](C(=O)O)C(C)C; d(β3hA) = C[C@@H](N)CC(=O)O; Morpholide = C1CN(*)CCO1; NMeA = CN[C@@H](C)C(=O)O; NMeAib = CNC(C)(C)C(=O)O; Piperidide = C1CCN(*)CC1; Pra = C#CC[C@H](N)C(=O)O; Pyrrolidide = C1CCN(*)C1; Ac5c = NC1(C(=O)O)CCCC1; Aze = O=C(O)[C@@H]1CCN1; CF3 = FC(F)(F)*; Sar = CNCC(=O)O

Biological target: T1, Kras and SOS1 (biotin-tagged human Kras loaded with GDP, His-tagged human SOS1) (Homo sapiens, UniProt P01116, G12D)
T1 construct: made in house; host or cells: E. coli (stated for Kras only)
Experiment: Protein-protein interaction inhibition between Kras and SOS1 (KrasGl2D-SOS PPI) using AlphaScreen
Assay type: binding
Conditions: AlphaScreen; biotin-tagged human Kras loaded with GDP, His-tagged human SOS1; read-out: KRAS G12D-SOS PPI IC50
Outline: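 AlphaScreen format: Ni donor beads capture His-SOS1, streptavidin acceptor beads capture biotinylated Kras (E. coli-expressed, GDP-loaded post-purification). Excite 680 nm, read 520-620 nm.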

T1 sequence (P01116 1-188 isoform P01116-2 G12D): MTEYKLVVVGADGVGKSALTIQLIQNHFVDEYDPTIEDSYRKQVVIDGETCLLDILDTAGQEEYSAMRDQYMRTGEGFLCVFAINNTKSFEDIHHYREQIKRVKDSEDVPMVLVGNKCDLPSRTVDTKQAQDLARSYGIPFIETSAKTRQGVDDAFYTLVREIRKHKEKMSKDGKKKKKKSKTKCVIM

Compound	IC50
CC[C@H](C)[C@@H]1NC(=O)[C@H](CC(C)C)N(C)C(=O)C[C@@H](C(=O)N2CCCCC2)N(C)C(=O)[C@H](C2CCCCC2)N(C)C(=O)C2(CCCC2)NC(=O)[C@H](Cc2ccc(C(F)(F)F)nc2)N(C)C(=O)[C@H](CCc2ccc(C(F)(F)F)c(Cl)c2)NC(=O)CN(C)C(=O)[C@H](CC2CCCCC2)N(C)C(=O)[C@@H]2CCN2C(=O)[C@H](C)N(C)C1=O [Compound 479] ([NMeL]I[NMeA][Aze][NMeCha][Sar][hPhe(3-Cl-4-CF3)][X12][Ac5c][NMeChg][NMeD]-Piperidide; lactam N-11)	300 nM
CC[C@H](C)[C@@H]1NC(=O)[C@H](C)N(C)C(=O)C[C@@H](C(=O)N(C)C)N(C)C(=O)[C@H]([C@@H](C)CC)N(C)C(=O)C2(CCCC2)NC(=O)[C@H](Cc2cccc(OC)c2)N(C)C(=O)[C@H](CCc2ccc(C(F)(F)F)c(Cl)c2)NC(=O)CN(C)C(=O)[C@H](Cc2ccc(C)cc2)N(C)C(=O)[C@@H]2CCN2C(=O)[C@H](C)N(C)C1=O [Compound 1922] ([NMeA]I[NMeA][Aze][NMePhe(4-Me)][Sar][hPhe(3-Cl-4-CF3)][NMePhe(3-OMe)][Ac5c][NMeI][NMeD]-NMe2; lactam N-11)	3.1 nM
CC[C@H](C)[C@@H]1NC(=O)[C@H](CC(F)(F)F)N(C)C(=O)C[C@@H](C(=O)N2CCCC2)N(C)C(=O)[C@H](C2CCCCC2)N(C)C(=O)C2(CCCC2)NC(=O)[C@@H]2CCCN2C(=O)[C@H](CCc2cc(F)c(C(F)(F)F)c(F)c2)NC(=O)CN(C)C(=O)[C@H](Cc2ccc(C(F)(F)F)cc2)N(C)C(=O)CN(C)C(=O)CN(C)C1=O [Compound 1244] ([NMeAbu(4,4,4-F3)]I[Sar][Sar][NMePhe(4-CF3)][Sar][hPhe(3,5-F2-4-CF3)]P[Ac5c][NMeChg][NMeD]-Pyrrolidide; lactam N-11)	0.63 nM
CC[C@H](C)[C@@H]1NC(=O)[C@H](CC(C)C)N(C)C(=O)C[C@@H](C)NC(=O)[C@H](C(C)C)N(C)C(=O)C2(CCCC2)NC(=O)[C@@H]2CCCN2C(=O)[C@H](CCc2ccc(C(F)(F)F)c(Cl)c2)NC(=O)CN(C)C(=O)[C@H](CC2CCCCC2)N(C)C(=O)CN(C)C(=O)[C@@H]2CCCN2C1=O [Compound 185] (cyclo([Ac5c][NMeV][d(β3hA)][NMeL]IP[Sar][NMeCha][Sar][hPhe(3-Cl-4-CF3)]P))	170 nM
CC[C@H](C)[C@@H]1NC(=O)[C@H](CC(C)C)N(C)C(=O)C[C@@H](C(=O)N2CCCCC2)N(C)C(=O)[C@H](C2CCCCC2)N(C)C(=O)[C@@H](C)NC(=O)[C@@H]2CCCN2C(=O)[C@H](CCc2ccc(C(F)(F)F)c(Cl)c2)NC(=O)CN(C)C(=O)[C@H](CC2CCCCC2)N(C)C(=O)CN(C)C(=O)CN(C)C1=O [Compound 917] ([NMeL]I[Sar][Sar][NMeCha][Sar][hPhe(3-Cl-4-CF3)]P[dA][NMeChg][NMeD]-Piperidide; lactam N-11)	2 nM
CCO[C@@H]1C[C@H]2C(=O)NC3(CCCC3)C(=O)N(C)[C@@H]([C@@H](C)CC)C(=O)N(C)[C@H](C(=O)N3CCOCC3)CC(=O)N(C)[C@@H](CC(C)C)C(=O)N[C@@H]([C@@H](C)CC)C(=O)N(C)[C@@H](C)C(=O)N3CC[C@H]3C(=O)N(C)[C@@H](Cc3ccc(C(F)(F)F)cc3)C(=O)N(C)CC(=O)N[C@@H](CCc3cc(F)c(C(F)(F)F)c(F)c3)C(=O)N2C1 [Compound 1261] ([NMeL]I[NMeA][Aze][NMePhe(4-CF3)][Sar][hPhe(3,5-F2-4-CF3)][Hyp](Et)[Ac5c][NMeI][NMeD]-Morpholide; lactam N-11)	0.65 nM
CC[C@H](C)[C@@H]1NC(=O)[C@H](C)N(C)C(=O)C[C@@H](C(=O)N(C)C)N(C)C(=O)[C@H]([C@@H](C)CC)N(C)C(=O)C2(CCCC2)NC(=O)[C@H](Cc2ccc(F)cc2)N(C)C(=O)[C@H](CCc2ccc(C(F)(F)F)c(Cl)c2)NC(=O)CN(C)C(=O)[C@H](Cc2ccc(C(F)(F)F)cc2)N(C)C(=O)[C@@H]2CCN2C(=O)[C@H](C)N(C)C1=O [Compound 1951] ([NMeA]I[NMeA][Aze][NMePhe(4-CF3)][Sar][hPhe(3-Cl-4-CF3)][NMePhe(4-F)][Ac5c][NMeI][NMeD]-NMe2; lactam N-11)	9.9 nM
C#CC[C@@H]1NC(=O)[C@H](Cc2cccc(I)c2)NC(=O)CN(C)C(=O)[C@H](Cc2ccc(OC(F)(F)F)cc2)N(C)C(=O)[C@@H]2CCN2C(=O)CN(C)C(=O)[C@H]([C@@H](C)CC)NC(=O)[C@H](CC(C)C)N(C)C(=O)C[C@@H](C(=O)N2CCCCC2)N(C)C(=O)[C@H](CC(C)C)NC(=O)C(C)(C)N(C)C1=O [Compound 1298] ([NMeL]I[Sar][Aze][NMeY](CF3)[Sar][Phe(3-I)][Pra][NMeAib]L[NMeD]-Piperidide; lactam N-11)	28 nM
CC[C@H](C)[C@@H]1NC(=O)[C@H](CC(C)C)N(C)C(=O)C[C@@H](C)NC(=O)[C@H](C(C)C)N(C)C(=O)C2(CCCC2)NC(=O)[C@@H]2CCCN2C(=O)[C@H](CCc2ccc(C(F)(F)F)c(Cl)c2)NC(=O)CN(C)C(=O)[C@H](Cc2cccc(Br)c2)N(C)C(=O)CN(C)C(=O)CN(C)C1=O [Compound 1587] (cyclo([Ac5c][NMeV][d(β3hA)][NMeL]I[Sar][Sar][NMePhe(3-Br)][Sar][hPhe(3-Cl-4-CF3)]P))	31 nM
